According to patent US20210238197A1, “NOVEL OXOQUINOLIZINE COMPOUNDS FOR THE TREATMENT AND PROPHYLAXIS OF BACTERIAL INFECTION” (Hoffmann-La Roche Inc., priority 2018, published 2021):
In brackets after ≈: the same amount, converted by molar mass. Like-named read-outs stand apart in the source and are kept apart here.

Legend:
[1] = tested on: S. aureus (ATCC29213); assay: 50% growth inhibitory concentration (IC50) determination assay, S. aureus; assay type: cell-based; settings: Staphylococcus aureus, ATCC29213; Iso-Sensitest broth, growth by OD 600 nm over 16 h; <0.098 = detection limit
Outline: (§1)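 Compounds two-fold diluted from 50 to 0.097 μM (final) in Iso-Sensitest broth, inoculum ~5×10^5 CFU/mL. Incubation at 35±2 °C with OD600 read every 20 min over 16 h to track growth.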

[2] = tested on: K. pneumoniae (ATCC10031); assay: 50% growth inhibitory concentration (IC50) determination assay, K. pneumoniae; assay type: cell-based; settings: Klebsiella pneumoniae, ATCC10031; Iso-Sensitest broth, growth by OD 600 nm over 16 h; <0.098 = detection limit
Outline: as §1

[3] = tested on: A. baumannii (ATCC17978); assay: 50% growth inhibitory concentration (IC50) determination assay, A. baumannii; assay type: cell-based; settings: Acinetobacter baumannii, ATCC17978; Iso-Sensitest broth, growth by OD 600 nm over 16 h; <0.098 = detection limit
Outline: as §1

[4] = Lyophilisation solubility assay (LYSA); assay type: physicochemical; settings: aqueous buffer, thermodynamic from solid; 0.05 M phosphate buffer, pH 6.5; <1.0 = detection limit
Protocol: The solubility of compounds of present invention was assessed by LYSA assay. Samples were prepared in duplicate from 10 mM DMSO stock solutions (20 μL) diluted in 30 μL pure DMSO. After evaporation of DMSO with a centrifugal vacuum evaporator, the residue was dissolved in 0.05 M phosphate buffer (150 μL, pH 6.5), which was stirred for one hour and shook for two hours. After one night, the solution was filtered using a microtiter filter plate. Then the filtrate and its 1/10 dilution were analyzed by HPLC-UV. In addition a four-point calibration curve was prepared from the 10 mM stock solutions and used for the solubility determination of the compounds.

[5] = Cytotoxicity assay (HepG2, CellTiter-Blue); assay type: cell-based; settings: human; HepG2 cells, 3 days treatment; >100 = detection limit
Outline: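 HepG2 cells exposed to compounds for 3 days. Viability read on day 3 by CellTiter-Blue fluorescence after 3 h at 37° C. CC50 obtained from a four-parameter logistic fit.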

[6] = Single dose PK study (SDPK) in female CD-1 mouse; assay type: in vivo; settings: IV bolus, 1.0 mg/kg solution; for clearance: plasma, read-out: CL total
Protocol: The single dose PK in female CD-1 mouse was performed to assess compound's pharmacokinetic properties. One group of animals were dosed via bolus intravenous (IV) of the respective compound. Blood samples (approximately 30 μL) were collected via saphenous vein at 5 mins, 15 min, 30 min, 1 hr, 2 hr, 4 hr and 7 hr. For last time point (24 hr), samples were collected via cardiac puncture while the mouse was under anesthesia. Blood samples were placed into tubes containing EDTA-K2 anticoagulant (2 μL of 0.5M per tube) and centrifuged at 3000 rpm for 10 minutes at 4° C. within half an hour to separate plasma from the samples. Following centrifugation, plasma samples were stored in polypropylene tubes, quick frozen over dry ice and kept at −70±10° C. until LC/MS/MS analysis. The pharmacokinetic parameters were calculated using non-compartmental module of WinNonlin® Professional 6.4.

[7] = tested on: multiple species and strains; assay: microbe, parasite or virus in culture; design: MIC S9 / MIC S7 / MIC S11 / MIC S8 / MIC S10: unit not given beside the values; settings: for MIC S9: E. coli ATCC 35218
Outline: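 Broth microdilution per CLSI M07-A10 in CAMHB, CAMHB+3% lysed horse blood or HTM. Inoculum was set to OD600 ~0.1, then diluted 1:280 (Gram-positive) or 1:400 (Gram-negative), and plates were incubated 18-24 h at 35±2° C in ambient air. MIC (μg/mL) is the lowest concentration giving no visible growth.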

[8] = Acinetobacter baumannii, ATCC19606, read-out: MIC S1, A. baumannii ATCC 19606
[9] = Acinetobacter baumannii, ATCC51432, read-out: MIC S2, A. baumannii ATCC 51432
[10] = Acinetobacter baumannii, ATCCBAA747, read-out: MIC S3, A. baumannii ATCC BAA-747
[11] = Escherichia coli, ATCC25922, read-out: MIC S11, E. coli ATCC 25922
[12] = Escherichia coli, ATCCBAA2340, read-out: MIC S10, E. coli ATCC BAA-2340
[13] = Klebsiella pneumoniae, ATCC10031, read-out: MIC S4, K. pneumoniae ATCC 10031
[14] = Klebsiella pneumoniae, ATCC700603, read-out: MIC S5, K. pneumoniae ATCC 700603
[15] = Klebsiella pneumoniae, ATCCBAA2146, read-out: MIC S6, K. pneumoniae ATCC BAA-2146
[16] = Pseudomonas aeruginosa, ATCC27853, read-out: MIC S7, P. aeruginosa ATCC 27853
[17] = Pseudomonas aeruginosa, ATCCBAA2113, read-out: MIC S8, P. aeruginosa ATCC BAA-2113

CNc1cc(F)c(F)c2c1[nH]c1ncc(-c3ccc4c(CN(C)C)cc(C(=O)O)c(=O)n4c3)c(N3CC[C@H]4CN(C)C[C@H]43)c12 (relative stereo) [Example 2.03, 7-[4-[cis-5-methyl-2,3,3a,4,6,6a-hexahydropyrrolo[2,3-c]pyrrol-1-yl]-5,6-difluoro-8-(methylamino)-9H-pyrido[2,3-b]indol-3-yl]-1-[(dimethylamino)methyl]-4-oxo-quinolizine-3-carboxylic acid]
IC50 [1]: 194 nM
IC50 [2]: < 98 nM
IC50 [3]: < 98 nM
solubility thermodynamic [4]: > 1060 µg/mL
CC50 at 3 days [5]: 46400 nM

CNc1cc(F)c(F)c2c1[nH]c1ncc(-c3ccc4c(CN5CCOCC5)cc(C(=O)O)c(=O)n4c3)c(N3CC[C@H]4CN(C)C[C@H]43)c12 (relative stereo) [Example 2.09, 7-[4-[cis-5-methyl-2,3,3a,4,6,6a-hexahydropyrrolo[2,3-c]pyrrol-1-yl]-5,6-difluoro-8-(methylamino)-9H-pyrido[2,3-b]indol-3-yl]-1-(morpholinomethyl)-4-oxo-quinolizine-3-carboxylic acid]
IC50 [1]: 174 nM
IC50 [2]: < 98 nM
IC50 [3]: < 98 nM
solubility thermodynamic [4]: 795 µg/mL (≈ 1240 µM)
CC50 at 3 days [5]: 86900 nM

CNc1cc(F)cc2c1[nH]c1ncc(-c3ccc4ccc(C(=O)O)c(=O)n4c3)c(N3CC[C@H]4CN(C)C[C@H]43)c12 (single isomer, unassigned) [Example 3.02A]
IC50 [1]: 102 nM
IC50 [2]: < 98 nM
IC50 [3]: < 98 nM
solubility thermodynamic [4]: 559 µg/mL (≈ 1060 µM)
CC50 at 3 days [5]: 41300 nM

CNc1cc(F)c(F)c2c1[nH]c1ncc(-c3ccc4ccc(C(=O)O)c(=O)n4c3)c(N3CCC4CN(C)C[C@@H]43)c12 (stereo in doubt) [Example 1.03, 7-[5,6-difluoro-4-(cis-5-methyl-2,3,3a,4,6,6a-hexahydropyrrolo[2,3-c]pyrrol-1-yl)-8-(methylamino)-9H-pyrido[2,3-b]indol-3-yl]-4-oxo-quinolizine-3-carboxylic acid]
IC50 [1]: < 98 nM
IC50 [2]: < 98 nM
IC50 [3]: < 98 nM
solubility thermodynamic [4]: 134 µg/mL (≈ 246 µM)
CC50 at 3 days [5]: 21900 nM
AUC total [6]: 374.7 ng·h/mL
clearance [6]: 39.1 mL/min/kg
MIC [7, 8]: 0.26 µg/mL (≈ 0.477 µM)
MIC [7, 9]: 0.26 µg/mL (≈ 0.477 µM)
MIC [7, 10]: 0.13 µg/mL (≈ 0.239 µM)
MIC S9 [7]: 0.510
MIC [7, 11]: 0.193 µg/mL (≈ 0.354 µM)
MIC [7, 12]: 2.06 µg/mL (≈ 3.78 µM)
MIC [7, 13]: 0.03 µg/mL (≈ 0.0551 µM)
MIC [7, 14]: 4.12 µg/mL (≈ 7.57 µM)
MIC [7, 15]: 2.06 µg/mL (≈ 3.78 µM)
MIC [7, 16]: 1.03 µg/mL (≈ 1.89 µM)
MIC [7, 17]: 2.06 µg/mL (≈ 3.78 µM)

CNc1cc(F)c(F)c2c1[nH]c1ncc(-c3ccc4ccc(C(=O)O)c(=O)n4c3)c(N3CC[C@H]4CN(C)C[C@H]43)c12 [Example 1.04, 7-[4-[(3aS,6aS)-5-methyl-2,3,3a,4,6,6a-hexahydropyrrolo[2,3-c]pyrrol-1-yl]-5,6-difluoro-8-(methylamino)-9H-pyrido[2,3-b]indol-3-yl]-4-oxo-quinolizine-3-carboxylic acid]
IC50 [1]: < 98 nM
IC50 [2]: < 98 nM
IC50 [3]: < 98 nM
solubility thermodynamic [4]: 460 µg/mL (≈ 845 µM)
CC50 at 3 days [5]: 15000 nM
AUC total [6]: 256 ng·h/mL
clearance [6]: 64.1 mL/min/kg
MIC [7, 8]: 0.128 µg/mL (≈ 0.235 µM)
MIC [7, 9]: 0.128 µg/mL (≈ 0.235 µM)
MIC [7, 10]: 0.128 µg/mL (≈ 0.235 µM)
MIC S9 [7]: 0.128
MIC [7, 11]: 0.048 µg/mL (≈ 0.0881 µM)
MIC [7, 12]: 0.258 µg/mL (≈ 0.474 µM)
MIC [7, 13]: 0.032 µg/mL (≈ 0.0588 µM)
MIC [7, 14]: 1.03 µg/mL (≈ 1.89 µM)
MIC [7, 15]: 1.03 µg/mL (≈ 1.89 µM)
MIC [7, 16]: 0.514 µg/mL (≈ 0.944 µM)
MIC [7, 17]: 2.06 µg/mL (≈ 3.78 µM)

CNc1cc(F)c(C#N)c2c1[nH]c1ncc(-c3ccc4ccc(C(=O)O)c(=O)n4c3)c(N3CC[C@H]4CN(C)C[C@H]43)c12 [Example 1.14, 7-[4-[(3aS,6aS)-5-methyl-2,3,3a,4,6,6a-hexahydropyrrolo[2,3-c]pyrrol-1-yl]-5-cyano-6-fluoro-8-(methylamino)-9H-pyrido[2,3-b]indol-3-yl]-4-oxo-quinolizine-3-carboxylic acid]
IC50 [1]: < 98 nM
IC50 [2]: < 98 nM
IC50 [3]: < 98 nM
CC50 at 3 days [5]: 15300 nM
AUC total [6]: 214 ng·h/mL
clearance [6]: 78.7 mL/min/kg
MIC [7, 8]: 0.108 µg/mL (≈ 0.196 µM)
MIC [7, 9]: 0.215 µg/mL (≈ 0.39 µM)
MIC [7, 10]: 0.215 µg/mL (≈ 0.39 µM)
MIC S9 [7]: 0.108
MIC [7, 11]: 0.04 µg/mL (≈ 0.0725 µM)
MIC [7, 12]: 0.215 µg/mL (≈ 0.39 µM)
MIC [7, 13]: 0.027 µg/mL (≈ 0.049 µM)
MIC [7, 14]: 1.72 µg/mL (≈ 3.13 µM)
MIC [7, 15]: 0.86 µg/mL (≈ 1.56 µM)
MIC [7, 16]: 0.86 µg/mL (≈ 1.56 µM)
MIC [7, 17]: 1.72 µg/mL (≈ 3.13 µM)

CNc1cc(F)c(Cl)c2c1[nH]c1ncc(-c3ccc4ccc(C(=O)O)c(=O)n4c3)c(N3CC[C@]4(C[C@@H]4N)C3)c12 [Example 5.01D, 7-(4-((1S,3S)-1-amino-5-azaspiro[2.4]heptan-5-yl)-5-chloro-6-fluoro-8-(methylamino)-9H-pyrido[2,3-b]indol-3-yl)-4-oxo-4H-quinolizine-3-carboxylic acid]
IC50 [1]: < 98 nM
IC50 [2]: < 98 nM
IC50 [3]: < 98 nM
CC50 at 3 days [5]: > 100000 nM
AUC total [6]: 180 ng·h/mL
clearance [6]: 93 mL/min/kg

CNc1cc(F)cc2c1[nH]c1nc(Oc3cnc(C)nc3)nc(N3C[C@H]4C[C@@H]3C[C@H]4N)c12 [GP-6, reference compound]
IC50 [1]: < 98 nM
IC50 [2]: < 98 nM
IC50 [3]: < 98 nM
solubility thermodynamic [4]: < 1 µg/mL
CC50 at 3 days [5]: 5600 nM
AUC total [6]: 126.2 ng·h/mL
clearance [6]: 132 mL/min/kg
MIC [7, 8]: 0.339 µg/mL (≈ 0.78 µM)
MIC [7, 9]: 0.339 µg/mL (≈ 0.78 µM)
MIC [7, 10]: 0.169 µg/mL (≈ 0.389 µM)
MIC S9 [7]: 0.169
MIC [7, 11]: 0.127 µg/mL (≈ 0.292 µM)
MIC [7, 12]: 1.36 µg/mL (≈ 3.13 µM)
MIC [7, 13]: < 0.021 µg/mL
MIC [7, 14]: 1.36 µg/mL (≈ 3.13 µM)
MIC [7, 15]: 2.71 µg/mL (≈ 6.25 µM)
MIC [7, 16]: 0.678 µg/mL (≈ 1.56 µM)
MIC [7, 17]: 1.36 µg/mL (≈ 3.13 µM)
